Measurements reported in patent US20160177395A1, “BIOMARKERS FOR THE PREDICTION OF RENAL INJURY” (priority 2007, published 2016).
Several values for one entry are separate records, joined by “and”; a condition that tells them apart may be missing. Identical values can stand only once.

Tested on: kidney tissues of treated or untreated rats
Experiment: Real-time qRT-PCR of marker transcripts in kidney tissue panel, discovery stage (Table 22)
Format: in vivo, rat
Design: AI502869_DB71_seg0 normalized Real Time PCR expression: unit not given beside the values
Settings: rat kidney
Outline: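 Rat kidney RNA, DNase-treated until PCR-negative, reverse transcribed with SuperscriptII; SYBR Green real-time PCR, 40 cycles, undetected samples set to Ct 41. Relative quantity from efficiency^-Ct (standard-curve efficiency), normalized to the geometric mean of four median-scaled housekeeping genes, then multiplied by a constant factor.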

[1] = day1, individual animals (F and M)
[2] = day5, individual animals (F and M)
[3] = day28, individual animals (F and M)

Substance: Gentamycin
- AW919147_DB71_seg0 normalized Real Time PCR expression (day1, individual animals): 1.72 and 0.72 (2×) and 0.76 and 1.1 and 0.99
- BI293562_DB71_seg2 normalized Real Time PCR expression (day1, individual animals): 0.59 and 0.94 and 0.93 and 0.55 and 0.41
- H31045_DB71_seg5 normalized Real Time PCR expression (day1, individual animals): 0.27 and 0.22 and 0.73 and 0.16 and 0.19 and 0.15
- H31799_DB71_seg23 normalized Real Time PCR expression (day1, individual animals): 1.19 and 0.88 and 0.93 and 1 and 1.2
- H31883_DB71_seg13 normalized Real Time PCR expression (day1, individual animals): 0.99 and 0.92 and 0.82 (2×) and 0.61 and 0.73
- H33998_DB71_seg19 normalized Real Time PCR [1]: 1.31 and 0.83 and 0.56 and 1.51 and 1.35 and 0.99
- MUSCYCG1R_DB81_seg15-17 normalized Real Time PCR [1]: 0.63 and 0.53 and 0.66 and 0.5 and 0.49 and 0.41
- RATLRFI_DB71_seg9 normalized Real Time PCR [1]: 0.98 and 1.54 and 1.09 and 2.74 and 1.72 and 0.27
- RATRAB13X_DB71_seg11-13 normalized Real Time PCR [1]: 1.16 and 0.7 and 0.77 and 2.79 and 1.14 and 1.03
- RNU24174_DB71_seg8 normalized Real Time PCR [1]: 0.47 (2×) and 0.5 and 0.74 and 0.37 and 0.26
- W41270_DB81_seg11 normalized Real Time PCR [1]: 1.24 and 0.67 and 1.19 and 0.46 and 0.68 and 0.57
- W64472_DB81_seg2 normalized Real Time PCR [1]: 0.63 and 0.45 and 0.61 and 0.4 and 0.54 (2×)
- W83813_DB81_seg27 normalized Real Time PCR [1]: 0.84 and 0.79 and 0.78 and 0.53 and 0.58 and 0.71
- AA686189_DB71_seg6 normalized Real Time PCR expression (day5, individual animals): 0.64 and 0.72 and 1.21 and 0.81 and 0.83 and 0.75
- AA799594_DB71_seg0 normalized Real Time PCR expression (day5, individual animals): 0.99 and 0.89 (2×) and 1.52 and 0.56 and 1.04
- AA964541_DB71_seg0 normalized Real Time PCR expression (day5, individual animals): 0.86 and 0.58 and 0.91 and 0.76 and 0.87
- AI045075_DB71_seg6 normalized Real Time PCR expression (day5, individual animals): 0.76 and 1.04 (2×) and 0.62 and 1.1 and 0
- AI454051_DB71_seg0 normalized Real Time PCR expression (day5, individual animals): 0.63 (2×) and 1.04 and 1.19 and 0.8 and 0.82
- AI502869_DB71_seg0 normalized Real Time PCR expression (day5, individual animals): 0.73 and 0.62 and 0.96 and 0.51 and 0.43 and 0.53
- AW919147_DB71_seg0 normalized Real Time PCR expression (day5, individual animals): 0.86 and 0.88 and 0.95 and 0.71 and 0.79 and 0.78
- BI293562_DB71_seg2 normalized Real Time PCR expression (day5, individual animals): 0.95 and 0.76 and 2.8 and 2.32 and 1.61 and 0.93
- H31045_DB71_seg5 normalized Real Time PCR expression (day5, individual animals): 0.52 and 1.01 and 0.4 and 1.57 and 1.47 and 0.33
- H31799_DB71_seg23 normalized Real Time PCR expression (day5, individual animals): 0.92 and 0.91 and 1.36 and 1.08 and 0.76 and 0.88
- H31883_DB71_seg13 normalized Real Time PCR expression (day5, individual animals): 0.73 and 0.55 and 0.91 and 1.01 and 0.7 and 0.65
- H33998_DB71_seg19 normalized Real Time PCR [2]: 1.9 and 1.5 and 2.19 and 1.91 and 0.83 and 1.16
- MUSCYCG1R_DB81_seg15-17 normalized Real Time PCR [2]: 1.51 (2×) and 1.61 and 0.95 and 0.79 and 1.02
- RATLRFI_DB71_seg9 normalized Real Time PCR [2]: 0.48 and 0.43 and 4.15 and 1.35 and 1.13 and 0.59
- RATRAB13X_DB71_seg11-13 normalized Real Time PCR [2]: 0.9 (2×) and 0.82 and 1.12 and 0.61 and 0.8
- RNU24174_DB71_seg8 normalized Real Time PCR [2]: 0.31 and 0.22 and 0.81 and 0.65 and 0.36 and 0.4
- W41270_DB81_seg11 normalized Real Time PCR [2]: 2.04 and 1.34 and 2.42 and 2.03 and 1.08 and 1.2
- W64472_DB81_seg2 normalized Real Time PCR [2]: 1.5 and 1.2 and 0.94 and 1.95 and 1.62 and 1.61
- W83813_DB81_seg27 normalized Real Time PCR [2]: 2.07 and 1.82 and 1.7 and 1.35 and 0.88 and 1.4
- AA686189_DB71_seg6 normalized Real Time PCR expression (day28, individual animals): 2.7 and 2.09 and 2.48 and 1.98 and 1.23 and 2.51
- AA799594_DB71_seg0 normalized Real Time PCR expression (day28, individual animals): 0.84 and 0.8 and 0.89 and 0.54 and 0.5 and 0.67
- AA964541_DB71_seg0 normalized Real Time PCR expression (day28, individual animals): 3.19 and 1.77 and 2.16 and 3.33 and 1.45 and 3.18
- AI045075_DB71_seg6 normalized Real Time PCR expression (day28, individual animals): 2.09 and 3.14 and 1.74 and 1.25 and 1.99 and 1.29
- AI454051_DB71_seg0 normalized Real Time PCR expression (day28, individual animals): 0.67 and 1 and 0.95 and 1.14 and 0.64 and 0.71
- AI502869_DB71_seg0 normalized Real Time PCR expression (day28, individual animals): 0.66 and 0.74 and 0.73 and 1.36 and 0.92 and 0.77
- AW919147_DB71_seg0 normalized Real Time PCR expression (day28, individual animals): 0.73 and 1.12 and 0.89 and 0.75 and 0.57 and 0.93
- BI293562_DB71_seg2 normalized Real Time PCR expression (day28, individual animals): 2.01 and 1.19 and 0.81 and 0.63 and 0.72 and 1.16
- H31045_DB71_seg5 normalized Real Time PCR expression (day28, individual animals): 0.79 and 0.84 and 0.67 and 1.11 and 4.65 and 0.45
- H31799_DB71_seg23 normalized Real Time PCR expression (day28, individual animals): 0.88 and 1.05 and 1.17 (2×) and 0.37
- H31883_DB71_seg13 normalized Real Time PCR expression (day28, individual animals): 0.88 and 0.98 and 0.96 and 1.05 and 0.64 and 0.8
- H33998_DB71_seg19 normalized Real Time PCR [3]: 0.4 (2×) and 0.7 and 0.56 and 0.49 and 0.42
- MUSCYCG1R_DB81_seg15-17 normalized Real Time PCR [3]: 0.69 and 0.62 and 0.57 and 0.65 and 0.56 and 0.54
- RATLRFI_DB71_seg9 normalized Real Time PCR [3]: 5.63 and 4.17 and 2.43 and 2.56 and 1.59 and 2.51
- RATRAB13X_DB71_seg11-13 normalized Real Time PCR [3]: 0.83 and 1.12 and 0.88 and 1.17 and 0.76 and 1.22
- RNU24174_DB71_seg8 normalized Real Time PCR [3]: 1.53 and 1.2 and 0.59 and 1.91 and 0.69 and 0.65
- W41270_DB81_seg11 normalized Real Time PCR [3]: 0.94 and 0.81 (2×) and 1.42 and 0.75 and 0.84
- W64472_DB81_seg2 normalized Real Time PCR [3]: 0.92 and 0.66 and 0.54 and 1.49 and 0.84 and 0.81
- W83813_DB81_seg27 normalized Real Time PCR [3]: 0.45 and 0.34 and 0.62 and 0.78 and 0.54 and 0.38
